In ChEMBL document CHEMBL5625201, “Discovery and structure-activity relationship studies of novel α-ketoamide derivatives targeting the SARS-CoV-2 main protease” (Eur J Med Chem, 2023):

What was measured:
SARS-CoV-2 [1] = assay: Antiviral activity against SARS-CoV-2 infected in human HPAEpiC cells assessed as reduction in viral replication by RT-qPCR assay; format: functional, organism-based; conditions: Severe acute respiratory syndrome coronavirus 2, HPAEpiC
[2] = molecular target: T1, Replicase polyprotein 1ab (Severe acute respiratory syndrome coronavirus 2, UniProt P0DTD1); assay: Inhibition of SARS-CoV-2 main protease by FRET assay
Cytochrome P450 2C9 = Cytochrome P450 2C9 (Homo sapiens, UniProt P11712); assay: Inhibition of CYP2C9 (unknown origin); format: ADME
Cytochrome P450 2C9, sequence (P11712 whole entry): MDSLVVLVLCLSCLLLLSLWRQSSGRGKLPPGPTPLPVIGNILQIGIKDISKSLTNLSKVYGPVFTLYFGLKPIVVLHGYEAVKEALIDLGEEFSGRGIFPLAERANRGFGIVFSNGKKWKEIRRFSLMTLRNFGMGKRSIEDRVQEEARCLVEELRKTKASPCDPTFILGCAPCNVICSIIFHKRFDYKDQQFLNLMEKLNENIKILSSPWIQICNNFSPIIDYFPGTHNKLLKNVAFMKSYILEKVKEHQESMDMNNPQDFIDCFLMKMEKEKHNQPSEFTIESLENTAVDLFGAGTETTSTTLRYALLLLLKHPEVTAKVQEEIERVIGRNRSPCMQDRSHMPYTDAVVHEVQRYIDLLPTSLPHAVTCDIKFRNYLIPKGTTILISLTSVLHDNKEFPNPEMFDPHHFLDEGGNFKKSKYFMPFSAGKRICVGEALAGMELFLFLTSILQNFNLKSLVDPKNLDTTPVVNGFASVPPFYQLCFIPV

Cytochrome P450 3A4 = Cytochrome P450 3A4 (Homo sapiens, UniProt P08684); assay: Inhibition of CYP3A4 (unknown origin); format: ADME
Cytochrome P450 3A4, sequence (P08684 whole entry): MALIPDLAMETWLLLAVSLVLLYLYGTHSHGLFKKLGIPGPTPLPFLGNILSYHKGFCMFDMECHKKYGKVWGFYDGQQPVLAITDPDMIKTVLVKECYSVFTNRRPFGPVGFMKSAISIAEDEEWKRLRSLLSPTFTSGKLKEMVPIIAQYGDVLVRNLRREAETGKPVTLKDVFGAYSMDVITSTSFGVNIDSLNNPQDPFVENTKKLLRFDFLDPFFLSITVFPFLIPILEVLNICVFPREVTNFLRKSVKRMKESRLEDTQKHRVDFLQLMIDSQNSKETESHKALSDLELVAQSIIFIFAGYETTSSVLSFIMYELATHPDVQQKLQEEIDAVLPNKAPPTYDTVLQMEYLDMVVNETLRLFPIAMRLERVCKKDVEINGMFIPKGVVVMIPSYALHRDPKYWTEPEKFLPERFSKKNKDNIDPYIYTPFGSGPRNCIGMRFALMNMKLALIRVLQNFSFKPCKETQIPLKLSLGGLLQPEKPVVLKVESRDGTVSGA

[3] = Cytotoxicity against African green monkey Vero cells; format: toxicity, cell-based; conditions: chlorocebus sabaeus
[4] = Cytotoxicity against human BEAS-2B cells; format: toxicity, cell-based
[5] = molecular target: T1, Replicase polyprotein 1ab; assay: Inhibition of SARS-CoV-2 Main protease using MCA-AVLQSGFR-Lys(DNP)-Lys-NH2 as substrate preincubated for 10 mins followed by substrate addition by FRET assay
SARS-CoV-2 [6] = assay: Antiviral activity against SARS CoV-2 infected in African green monkey VeroE6/TMPRSS2 assessed as reduction in plaque formation measured after 2 days by crystal violet staining based assay; format: functional, organism-based; conditions: Severe acute respiratory syndrome coronavirus 2, VeroE6/TMPRSS2, 48 h

## CCC(CC)COC(=O)[C@H](C)N[P@](=O)(OC[C@H]1O[C@@](C#N)(c2ccc3c(N)ncnn23)[C@H](O)[C@@H]1O)Oc1ccccc1
SARS-CoV-2 [1]
  EC50: 364 nM

## CC(C)(C)[C@H](NC(=O)C(F)(F)F)C(=O)N1C[C@H]2[C@@H]([C@H]1C(=O)N[C@H](C#N)C[C@@H]1CCNC1=O)C2(C)C
SARS-CoV-2 [1]
  EC50: 50 nM

## O=C(NCc1ccccn1)C(=O)[C@@H](Cc1ccccc1)NC(=O)[C@H]1COCCN1C(=O)[C@@H]1C[C@@H]2[C@H](C1)C2(F)F
[2]
  IC50: 23.6 nM

## O=C(CCCc1ccccc1)N[C@H](Cc1ccccc1)C(=O)C(=O)NCc1ccccn1
Cytochrome P450 2C9
  inhibition (INH): Active
[2]
  IC50: 33.8 nM
Cytochrome P450 3A4
  inhibition (INH): Active

## O=C(CNC(=O)[C@@H]1C[C@@H]2[C@H](C1)C2(F)F)N[C@H](Cc1ccccc1)C(=O)C(=O)NCc1ccccn1
[2]
  IC50: 17.9 nM

## C[C@@H](NC(=O)CC1CCC(F)(F)CC1)C(=O)N[C@H](Cc1ccccc1)C(=O)C(=O)NCc1ccccn1
[2]
  IC50: 16.1 nM

## CN(CC(=O)N[C@H](Cc1ccccc1)C(=O)C(=O)NCc1ccccn1)C(=O)C1CCC(F)(F)CC1
[2]
  IC50: 30.6 nM

## N#Cc1cc(C(=O)NCC(=O)N[C@H](Cc2ccccc2)C(=O)C(=O)NCc2ccccn2)ccc1F
[2]
  IC50: 168 nM

## O=C(CNC(=O)c1ccccc1)N[C@H](Cc1ccccc1)C(=O)C(=O)NCc1ccccn1
Cytochrome P450 2C9
  inhibition (INH): Active
[2]
  IC50: 141 nM
Cytochrome P450 3A4
  inhibition (INH): Active

## O=C(CCc1ccccc1)N[C@H](Cc1ccccc1)C(=O)C(=O)NCc1ccccn1
Cytochrome P450 2C9
  inhibition (INH): Active
[2]
  IC50: 86.7 nM
Cytochrome P450 3A4
  inhibition (INH): Active

## COC[C@@H](NC(=O)C1CCC(F)(F)CC1)C(=O)N[C@H](Cc1ccccc1)C(=O)C(=O)NCc1ccccn1
[3]
  CC50: > 100000 nM
[2]
  IC50: 17 nM
SARS-CoV-2 [1]
  EC50: 59.5 nM
[4]
  CC50: > 100000 nM

## O=C(CNC(=O)C1CCC(F)(F)CC1)N[C@H](Cc1ccc(Cl)c(Cl)c1)C(=O)C(=O)NCc1ccccn1
[2]
  IC50: 34.4 nM

## C[C@@H](NC(=O)C1CCC(F)(F)CC1)C(=O)N[C@H](Cc1ccccc1)C(=O)C(=O)NCc1ccccn1
[3]
  CC50: > 100000 nM
SARS-CoV-2 [1]
  EC50: 65.3 nM
[4]
  CC50: > 100000 nM

## C[C@@H](NC(=O)[C@@H]1C[C@@H]2[C@H](C1)C2(F)F)C(=O)N[C@H](Cc1ccccc1)C(=O)C(=O)NCc1ccccn1
[3]
  CC50: > 100000 nM
SARS-CoV-2 [1]
  EC50: 97.8 nM
[4]
  CC50: > 100000 nM

## O=C(Cc1ccccc1)N[C@H](Cc1ccccc1)C(=O)C(=O)NCc1ccccn1
[2]
  IC50: 219 nM

## O=C(CNC(=O)C1CCC(F)(F)CC1)N[C@H](Cc1ccccc1)C(=O)C(=O)NCc1ccccn1
[3]
  CC50: > 100000 nM
SARS-CoV-2 [1]
  EC50: 102 nM
[4]
  CC50: > 100000 nM

## O=C(NCc1ccccn1)C(=O)[C@@H](Cc1ccccc1)NC(=O)[C@H]1CC(F)(F)CN1C(=O)[C@@H]1C[C@@H]2[C@H](C1)C2(F)F
[2]
  IC50: 37.2 nM

## O=C(NCc1ccccn1)C(=O)[C@@H](Cc1ccccc1)NC(=O)[C@H]1CC(F)(F)CN1C(=O)CC1CCC(F)(F)CC1
[2]
  IC50: 35 nM

## O=C(NCc1ccccn1)C(=O)[C@@H](Cc1ccccc1)NC(=O)c1ccccc1
[2]
  IC50: 208 nM

## O=C(CC1CCC(F)(F)CC1)NCC(=O)N[C@H](Cc1ccccc1)C(=O)C(=O)NCc1ccccn1
[2]
  IC50: 15 nM

## O=C(COc1ccccc1)N[C@H](Cc1ccccc1)C(=O)C(=O)NCc1ccccn1
Cytochrome P450 2C9
  inhibition (INH): Active
[2]
  IC50: 55.5 nM
Cytochrome P450 3A4
  inhibition (INH): Active

## O=C(NCc1ccccn1)C(=O)[C@@H](Cc1ccccc1)NC(=O)C1(NC(=O)C2CCC(F)(F)CC2)CC1
[2]
  IC50: 21.2 nM

## O=C(CNC(=O)c1ccc(Cl)c(F)c1)N[C@H](Cc1ccccc1)C(=O)C(=O)NCc1ccccn1
[2]
  IC50: 18.5 nM

## CC[C@@H](NC(=O)C1CCC(F)(F)CC1)C(=O)N[C@H](Cc1ccccc1)C(=O)C(=O)NCc1ccccn1
[2]
  IC50: 41.6 nM

## O=C(NCc1ccccn1)C(=O)[C@@H](Cc1ccccc1)NC(=O)[C@H]1COCCN1C(=O)CC1CCC(F)(F)CC1
[3]
  CC50: > 100000 nM
[2]
  IC50: 10.9 nM
SARS-CoV-2 [1]
  EC50: 66.4 nM
[4]
  CC50: > 100000 nM

## [2H][C@](C(=O)N[C@@H](C)c1ccc(F)cc1)(c1ccccc1)N(C(=O)C(C)=O)c1ccc2c(c1)oc1ccccc12
[5]
  IC50: 8 nM
SARS-CoV-2 [6]
  EC50: 11 nM
